What all share (format): cell-based
The test system of assay [1] is three strains of Escherichia coli isolated from the vaginal secretion of patients with vaginitis. As to the kind of experiment: Growth in enrichment broth (turbidity after 24 hours), clinical strains. From the text:
(§1) a. Experimental strains, three strains of Escherichia coli and three strains of Staphylococcus aureus, which were all isolated from the vaginal secretion of patients with vaginitis.
(§2) b. Enrichment broth, which contained 1 percent of yeast extract powder, 9 percent of sucrose, 0.025 percent of manganese sulfate (MnSO4.4H2O), 0.058 percent of magnesium sulfate (MgSO4.7H2O), and 0.9 percent of lactic acid, the pH value of the broth was adjusted to 4.8, and the enrichment broth was sterilized for later use;
(§3) (2). Experimental groups: the requirements for aseptic operation technique were strictly followed to prepare the sterile test tubes:
(§4) a. sodium benzoate group: each test tube contained 5 milliliters of enrichment broth, and was added in 0.05 percent (weight/volume) sodium benzoate;
(§5) b. 2-phenylethanol group: each test tube contained 5 milliliters of enrichment broth, and was added in 0.05 percent (weight/volume) of 2-phenylethanol;
(§6) c. sodium propionate group: each test tube contained 5 milliliters of enrichment broth, and was added in 0.25 percent (weight/volume) of sodium propionate;
(§7) d. “a group of the combinations of sodium benzoate and sodium propionate”: each test tube contained 5 milliliters of enrichment broth, and was added in 0.05 percent (weight/volume) of sodium benzoate and 0.25 percent (weight/volume) of sodium propionate;
(§8) e. “a group of the combinations of sodium benzoate and 2-phenylethanol”: each test tube contained 5 milliliters of enrichment broth, and was added in 0.05 percent (weight/volume) of sodium benzoate and 0.05 percent (weight/volume) of 2-phenylethanol;
(§9) f. “a group of the combinations of sodium propionate and 2-phenylethanol”: each test tube contained 5 milliliters of enrichment broth, and was added in 0.25 percent (weight/volume) of sodium propionate and 0.05 percent (weight/volume) of 2-phenylethanol;
(§10) g. “a group of the combinations of sodium benzoate, sodium propionate and 2-phenylethanol”: each test tube contained 5 milliliters of enrichment broth, and was added in 0.05 percent (weight/volume) of sodium benzoate, 0.25 percent (weight/volume) of sodium propionate, and 0.05 percent (weight/volume) of 2-phenylethanol;
(§11) h. positive control: one tube that contained 5 milliliters of enrichment broth without adding in any of the 2-phenylethanol, sodium benzoate, and sodium propionate, but inoculated the suspension of Escherichia coli or Staphylococcus aureus.
(§12) i. negative control: one tube that contained 5 milliliters of enrichment broth without adding in any of the 2-phenylethanol, sodium benzoate, and sodium propionate, and not inoculated the suspension of Escherichia coli or Staphylococcus aureus.
(§13) The requirements for aseptic operation technique were strictly followed to prepare the bacterial suspensions. The colonies of Escherichia coli and Staphylococcus aureus were diluted with physiological saline respectively to prepare bacterial suspension. The turbidities of the Escherichia coli suspension and the Staphylococcus aureus suspension were adjusted to 0.5 MCF (about 10^8 CFU/ml) by a turbidimeter. 1 milliliter of the 0.5 MCF bacterial suspensions were added into 9 milliliters of the enrichment broth respectively, so each bacterial solution was diluted for ten times to contain 10^7 CFU/ml of bacterial organisms.
(§14) The requirements for aseptic operation technique were strictly followed to take 100 microliters of the prepared bacterial suspensions respectively, and to add the bacterial suspensions into the aforesaid test tubes from a to h as well as positive control tube. No bacterial suspension was added into the negative control tube i.
(§15) The above tubes were cultured in a biochemical incubator at 37° C. for 24 hours, then turbidity changes of the test tube solutions were observed and recorded.
(§16) Remark: “+” means the growth of bacteria; “−” means no growth of bacteria.

Another assay deals with Lactococcus lactis. As to the kind of experiment: Gram-stained smear of co-culture gel, Gram-positive cocci (G+c). To be noted: for Smear G^+c: cultivated 32 hours. From the text:
2.1 Experimental strains: one Lactococcus lactis strain and one Lactobacillus jensenii strain, both were clinical isolates.
The pH value was adjusted to 5.0.
2.4 Experimental procedure: the test gel tubes containing different concentrations of antimicrobial agents, as shown in Tables 1 to 6 were inoculated with 100 microliters of Lactobacillus lactis suspension and 100 microliters of Lactobacillus jensenii suspension at the same time. The turbidities of both suspensions were 0.5 MCF. Then the tubes were cultivated at 37° C. and under 5 percent CO2 for 32 hours. Then the changes of the pH values of gels were tested. The gels were smeared, Gram stained, and microscopically examined for the morphology and quantity of bacteria.

The subject of assay [2] is three strains of Staphylococcus aureus isolated from the vaginal secretion of patients with vaginitis. Nature of the assay: Growth in enrichment broth (turbidity after 24 hours), clinical strains.
Description: as §1, §2, §3, §4, §5, §6, §7, §8, §9, §10, §11, §12, §13, §14, §15, §16

The mark [3] stands for this setting: 0.05 percent (weight/volume) in enrichment broth pH 4.8, 37° C. 24 hours.
[4] abbreviates: 0.25 percent (weight/volume) in enrichment broth pH 4.8, 37° C. 24 hours.

This note sets out measurements from US20190231748A1, “COMPOSITION FOR VAGINA AND ANTIMICROBIAL AGENT COMBINATION FOR USE IN PREPARING COMPOSITION FOR VAGINA” (Shenzhen Eulikan Biotechnology Co., Ltd., priority 2016, published 2019).

In the case of `OCCc1ccccc1` [2-phenylethanol], the “could inhibit the growth of Escherichia coli (agent alone, words)” value in assay [1] (setting [3]) was “no one of the three antimicrobial agents”. Further, the “Smear G^+c” value with Lactococcus lactis (0.15 % in test gel) is reported as “G^+c+++”; with Lactococcus lactis (0.2 % in test gel), “G^+c+++”; with Lactococcus lactis (0.25 % in test gel), “G^+c+++”; with Lactococcus lactis (0.3 % in test gel), “G^+c+++”; with Lactococcus lactis (0.35 % in test gel), “G^+c+~+”; in the assay on Lactococcus lactis (0.4 % in test gel), “G^+c+”. Also, the “inhibition effect on the growth of Lactococcus lactis” value in the assay on Lactococcus lactis (0.35 to 0.45 percent) was “stronger inhibition effect”. Further, the “could inhibit the growth of Staphylococcus aureus (agent alone, words)” value in assay [2] (setting [3]) is “no one of the three antimicrobial agents”.
As to `CCC(=O)[O-].[Na+]` [sodium propionate], the “could inhibit the growth of Escherichia coli (agent alone, words)” value in assay [1] (setting [4]) was “no one of the three antimicrobial agents”. For the same compound, the “Smear G^+c” value in the assay on Lactococcus lactis (0.1 % in test gel) is “G^+c+++”; in the assay on Lactococcus lactis (0.2 % in test gel), “G^+c+++”; with Lactococcus lactis (0.3 % in test gel), “G^+c+++”; in the assay on Lactococcus lactis (0.4 % in test gel) it was “G^+c+”; in the assay on Lactococcus lactis (0.5 % in test gel), “G^+c+”. In addition, the “inhibition effect on the growth of Lactococcus lactis” value in the assay on Lactococcus lactis (0.4 to 0.6 percent) was “stronger inhibition effect”. Moreover, the “could inhibit the growth of Staphylococcus aureus (agent alone, words)” value in assay [2] (setting [4]) is listed as “no one of the three antimicrobial agents”.
